Like-named read-outs stand apart in the source and are kept apart here. One block for each molecule: values may come before it.
How the values were obtained:
[1] = tested on: Leishmania donovani axenic amastigote parasites; experiment: Leishmania donovani axenic amastigote proliferation assay (Cell TiterGlo luminescence, 2 day incubation); format: cell-based; details: read-out: L. donovani amastigotes EC50
[2] = tested on: Trypanosoma brucei Lister 427 strain, bloodstream form; experiment: Assay for proliferation of kinetoplastid parasite Trypanosoma brucei (Cell Titer Glo, 48 hours); format: cell-based; details: T. brucei Lister 427 bloodstream form, read-out: T. brucei EC50
Source text: Assay for Proliferation of Kinetoplastid Parasite Trypanosoma brucei.
The proliferation is quantified by the addition of Cell Titer Glo (Promega®) a luminescent cell viability assay that measures the number of viable cells in culture based on the quantification of cellular ATP amount, which is an indicator of metabolically active cells.
The following assay illustrates the invention without in any way limiting the scope of the invention. This parasite proliferation assay measures the increase in parasite growth using an assay that measures ATP activity, Cell Titer Glo®.
Trypanosoma brucei Lister 427 strain is grown in HMI-9 Trypanosome media for T. brucei bloodstream form. 30 μl of HMI-9 media is dispensed into 384 well assay plates. 200 nl of compounds of the invention (in DMSO), including anti-trypanosome controls (Pentamidine and suramin), are then transferred into the assay plates, as well as DMSO alone to serve as a negative control for inhibition. Then 25 μl of a suspension of T. brucei culture in HMI-9 media is dispensed into the assay plates. The final concentration of parasites in culture corresponds to 1.7% of 0.5 uM ATP activity with Cell Titer Glo® in HMI-9 media. The plates are placed in a 37° C. incubator for 48 hours in an atmospheric environment containing 5% CO2. 40 μl of Cell Titer Glo® is dispensed into the plates. The plates are then read for luminescence. The percentage inhibition of 50%, EC50, is calculated for each compound.

[3] = tested on: L. donovani HU3 strain in mouse peritoneal macrophages; experiment: Assay for proliferation of Leishmania parasites in infected mouse peritoneal macrophages (SybrGreen staining, high-content imaging, 5 days); format: cell-based, Leishmania donovani; details: L. donovani in mouse peritoneal macrophages, read-out: L. donovani Macrophage EC50
[4] = Leishmania donovani, L. donovani axenic amastigotes
[5] = Leishmania donovani, Peritoneal macrophage
[6] = Leishmania donovani, axenic amastigotes, inhibition of proliferation
[7] = Trypanosoma brucei, inhibition of proliferation
[8] = Leishmania donovani, Peritoneal macrophage, inhibition of proliferation

SMILES: CC(C)OC(=O)Nc1cnc2nc(-c3cccc(NC(=O)N(C)C)c3)cn2c1 [Compound 20]
EC50 [1, 6]: 13400 nM | EC50 [2, 7]: 2000 nM | EC50 [3, 8]: 7900 nM

SMILES: COCCOC(=O)Nc1ccc(Cl)c(-c2cn3cc(-c4ccc(NC(=O)OC)cc4)cnc3n2)c1 [Compound 32, 2-methoxyethyl N-[4-chloro-3-(6-{4-[(methoxycarbonyl)amino]phenyl}imidazo[1,2-a]pyrimidin-2-yl)phenyl]carbamate]
EC50 [1, 6]: 118 nM | EC50 [2, 7]: 186 nM | EC50 [3, 8]: 330 nM

SMILES: CC(C)OC(=O)Nc1cnc2nc(-c3cc(NC(=O)N4CC(O)C4)ccc3F)cn2c1 [Compound 288]
EC50 [1, 6]: 7690 nM | EC50 [2, 7]: 33800 nM | EC50 [3, 8]: > 50000 nM

SMILES: CCN(C)C(=O)Nc1cccc(-c2cn3cc(NC(=O)OC(C)C)cnc3n2)c1 [Compound 6]
EC50 [1, 6]: 22300 nM | EC50 [2, 7]: 664 nM | EC50 [3, 8]: 9200 nM

SMILES: O=C(Nc1ccc(Cl)c(-c2cn3cc(-c4ccc(F)cc4)cnc3n2)c1)N1CCCC1 [Compound 25]
EC50 [1, 6]: 54 nM | EC50 [2, 7]: 27.5 nM | EC50 [3, 8]: 100 nM

SMILES: Cc1ccc(C(=O)Nc2ccc(Cl)c(-c3cn4cc(-c5ccsc5)cnc4n3)c2)o1 [Compound 30]
EC50 [1, 6]: 101 nM | EC50 [2, 7]: 86.8 nM | EC50 [3, 8]: 172 nM

SMILES: CON(C)C(=O)Nc1cccc(-c2cn3cc(NC(=O)OC(C)C)cnc3n2)c1 [Compound 215]
EC50 ([1]; axenic amastigotes, inhibition of proliferation): 533 nM | EC50 ([2]; inhibition of proliferation): 181 nM | EC50 ([3]; inhibition of proliferation): 1320 nM

SMILES: Cc1nc(C)c(C(=O)Nc2ccc(F)c(-c3cn4cc(C5CC5)cnc4n3)c2)o1 [Compound 339, N-(3-(6-cyclopropylimidazo[1,2-a]pyrimidin-2-yl)-4-fluorophenyl)-2,4-dimethyloxazole-5-carboxamide]
EC50 [1, 6]: 85 nM | EC50 [2, 7]: 80 nM | EC50 [3, 8]: 272 nM

SMILES: CC(C)OC(=O)Nc1cnc2nc(-c3cc(NC(=O)N4CCC4)ccc3F)cn2c1 [Compound 226]
EC50 [1, 6]: 42 nM | EC50 [2, 7]: 37 nM | EC50 [3, 8]: 384 nM

SMILES: CON(C)C(=O)Nc1ccc(F)c(-c2cn3cc(NC(=O)OC(C)C)cnc3n2)c1 [Compound 221]
EC50 [1, 6]: 249 nM | EC50 [2, 7]: 177 nM | EC50 [3, 8]: 1060 nM

SMILES: COC(=O)Nc1ccc(-c2cnc3nc(-c4cc(NC(=O)c5ccc(C)o5)ccc4Cl)cn3c2)cc1 [Compound 27, methyl (4-(2-(2-chloro-5-(5-methylfuran-2-carboxamido)phenyl)imidazo[1,2-a]pyrimidin-6-yl)phenyl)carbamate]
EC50 [1, 6]: 35 nM | EC50 [2, 7]: 589 nM | EC50 [3, 8]: 110 nM

SMILES: O=C(Nc1ccc(Cl)c(-c2nc3ncc(-c4ccccc4)cn3c2F)c1)N1CCCC1 [Compound 39]
EC50 [1, 6]: > 3400 nM | EC50 [2, 7]: 74.5 nM | EC50 [3, 8]: 180 nM

SMILES: O=C(Nc1ccc(Cl)c(-c2cn3cc(-c4ccsc4)cnc3n2)c1)N1CCCC1 [Compound 28]
EC50 [1, 6]: 28 nM | EC50 [2, 7]: 9.36 nM | EC50 [3, 8]: 129 nM

SMILES: O=C(Nc1ccc(Cl)c(-c2cn3cc(Cl)cnc3n2)c1)c1ccco1 [Compound 38]
EC50 [1, 6]: 5900 nM | EC50 [2, 7]: 1800 nM | EC50 [3, 8]: 15600 nM

SMILES: CC(C)OC(=O)Nc1cnc2nc(-c3cc(NC(=O)c4ccco4)ccc3F)cn2c1 [Compound 12, isopropyl (2-(2-fluoro-5-(furan-2-carboxamido)phenyl)imidazo[1,2-a]pyrimidin-6-yl)carbamate]
EC50 [2, 7]: 65.6 nM

SMILES: Cc1ccc(C(=O)Nc2ccc(Cl)c(-c3cn4cc(-c5ccccc5)cnc4n3)c2)o1 [Compound 31, N-(4-chloro-3-(6-phenylimidazo[1,2-a]pyrimidin-2-yl)phenyl)-5-methylfuran-2-carboxamide]
EC50 [1, 6]: 169 nM | EC50 [2, 7]: 67.7 nM | EC50 [3, 8]: 243 nM

SMILES: CC(C)OC(=O)Nc1cnc2nc(-c3cccc(NC(=O)c4nccs4)c3)cn2c1 [Compound 11]
EC50 [1, 6]: 3800 nM | EC50 [2, 7]: 659 nM | EC50 [3, 8]: 5000 nM

SMILES: Cc1ccc(C(=O)Nc2cccc(-c3cn4cc(NC(=O)OC(C)C)cnc4n3)c2)o1 [Compound 13]
EC50 [1, 6]: 1720 nM | EC50 [2, 7]: 181 nM | EC50 [3, 8]: 810 nM

SMILES: O=C(Nc1ccc(F)c(-c2cn3cc(Br)cnc3n2)c1)C1CCCC1 [Compound 196, N-(3-(6-bromoimidazo[1,2-a]pyrimidin-2-yl)-4-fluorophenyl)cyclopentanecarboxamide]
EC50 [1, 6]: 6520 nM | EC50 [2, 7]: 1860 nM

SMILES: CC(C)OC(=O)Nc1cnc2nc(-c3cc(NC(=O)N4CC(Cl)C4)ccc3F)cn2c1 [Compound 291]
EC50 [1, 6]: 390 nM | EC50 [2, 7]: 206 nM | EC50 [3, 8]: 968 nM

SMILES: COC(=O)Nc1ccc(-c2cnc3nc(-c4cc(NC(=O)N5CCCC5)ccc4Cl)cn3c2)cc1 [Compound 24, methyl (4-(2-(2-chloro-5-(pyrrolidine-1-carboxamido)phenyl)imidazo[1,2-a]pyrimidin-6-yl)phenyl)carbamate]
EC50 [1, 6]: 19.9 nM | EC50 [2, 7]: 8.45 nM | EC50 [3, 8]: 57 nM

SMILES: Cc1nc(C)c(C(=O)Nc2ccc(F)c(-c3cn4cc(NC(=O)c5nccn5C)cnc4n3)c2)o1 [Compound 174]
EC50 [2, 7]: 483 nM

SMILES: O=C(Nc1ccc(F)c(-c2cn3cc(Br)cnc3n2)c1)c1ccccc1 [Compound 197]
EC50 [1, 6]: 2490 nM | EC50 [2, 7]: 491 nM

SMILES: Cc1cnc(C(=O)Nc2cccc(-c3cn4cc(NC(=O)OC(C)C)cnc4n3)c2)s1 [Compound 41]
EC50 [2, 7]: 4400 nM

SMILES: CC(C)OC(=O)Nc1cnc2nc(-c3cccc(NC(=O)C4CC4)c3)cn2c1 [Compound 42]
EC50 [2, 7]: 1700 nM

Results, then the molecule that gave them:

EC50 [1, 4]: > 25000 nM | EC50 ([2]; Trypanosoma brucei): > 50000 nM | EC50 [3, 5]: 37700 nM
SMILES: CC(C)Nc1ccc(F)c(-c2cn3cc(NC(=O)OC(C)C)cnc3n2)c1 [Compound 523]

EC50 [1, 4]: 641 nM | EC50 ([2]; Trypanosoma brucei): 84 nM | EC50 [3, 5]: 1640 nM
SMILES: O=C(Nc1ccc(F)c(-c2cn3cc(F)cnc3n2)c1)N1CCCC1 [Compound 514]

EC50 [1, 4]: 145 nM | EC50 ([2]; Trypanosoma brucei): 53 nM | EC50 [3, 5]: 428 nM
SMILES: CC(C)Nc1cnc2nc(-c3cc(NC(=O)N4CC(F)C4)ccc3F)cn2c1 [Compound 592]

EC50 [1, 4]: > 25000 nM | EC50 ([2]; Trypanosoma brucei): > 50000 nM
SMILES: CC(=O)Nc1ccc(F)c(-c2cn3cc(N)cnc3n2)c1 [Compound 569]

EC50 [1, 4]: 958 nM | EC50 ([2]; Trypanosoma brucei): 426 nM | EC50 [3, 5]: 1580 nM
SMILES: O=C(Nc1cnc2nc(-c3ccc(F)c(NC(=O)N4CCCC4)c3)cn2c1)OCc1ccccc1 [Compound 513, Benzyl (2-(4-fluoro-3-(pyrrolidine-1-carboxamido)phenyl)imidazo[1,2-a]pyrimidin-6-yl)carbamate]

EC50 [1, 4]: > 25000 nM | EC50 ([2]; Trypanosoma brucei): 12100 nM | EC50 [3, 5]: > 50000 nM
SMILES: CC(=O)Nc1ccc(F)c(-c2cn3cc(NC(C)=O)cnc3n2)c1 [Compound 567, N-(2-(5-acetamido-2-fluorophenyl)imidazo[1,2-a]pyrimidin-6-yl)acetamide]

EC50 [1, 4]: > 25000 nM | EC50 ([2]; Trypanosoma brucei): > 50000 nM | EC50 [3, 5]: 2270 nM
SMILES: CC(C)c1cnc2nc(-c3cc(N)ccc3F)cn2c1 [Compound 584, 4-fluoro-3-(6-isopropylimidazo[1,2-a]pyrimidin-2-yl)aniline]

EC50 [1, 4]: 22 nM | EC50 ([2]; Trypanosoma brucei): 17 nM | EC50 [3, 5]: 65 nM
SMILES: Cc1cccnc1-c1cnc2nc(-c3cc(NC(=O)N4CC[C@@H](F)C4)ccc3F)cn2c1 [Compound 410]

EC50 [1, 4]: 7370 nM | EC50 ([2]; Trypanosoma brucei): 13500 nM
SMILES: O=C(Nc1ccc(F)c(-c2cn3cc(Br)cnc3n2)c1)N1CCOCC1 [Compound 515]

EC50 [1, 4]: 4590 nM | EC50 ([2]; Trypanosoma brucei): 1430 nM | EC50 [3, 5]: > 50000 nM
SMILES: COC(=O)Nc1ccc(F)c(-c2cn3cc(Br)cnc3n2)c1 [Compound 517]

EC50 [1, 4]: > 25000 nM | EC50 ([2]; Trypanosoma brucei): > 50000 nM
SMILES: Nc1cnc2nc(-c3cccc(NC(=O)N4CCCC4)c3F)cn2c1 [Compound 580]

EC50 [1, 4]: 7230 nM | EC50 ([2]; Trypanosoma brucei): 3260 nM | EC50 [3, 5]: > 50000 nM
SMILES: CC(=O)Nc1ccc(F)c(-c2cn3cc(NC(=O)OC(C)(C)C)cnc3n2)c1 [Compound 529, tert-butyl (2-(5-acetamido-2-fluorophenyl)imidazo[1,2-a]pyrimidin-6-yl)carbamate]

EC50 [1, 4]: 552 nM | EC50 ([2]; Trypanosoma brucei): 59 nM | EC50 [3, 5]: 4000 nM
SMILES: CN(CC(F)(F)F)C(=O)Nc1ccc(F)c(-c2cn3cc(Br)cnc3n2)c1 [Compound 586, 3-(3-(6-bromoimidazo[1,2-a]pyrimidin-2-yl)-4-fluorophenyl)-1-methyl-1-(2,2,2-trifluoroethyl)urea]

EC50 [1, 4]: > 25000 nM | EC50 ([2]; Trypanosoma brucei): > 50000 nM
SMILES: O=CNc1ccc(F)c(-c2cn3cc(Br)cnc3n2)c1 [Compound 531, N-(3-(6-bromoimidazo[1,2-a]pyrimidin-2-yl)-4-fluorophenyl)formamide]

EC50 ([2]; Trypanosoma brucei): 9840 nM
SMILES: Nc1cnc2nc(-c3ccc(F)c(NC(=O)N4CCCC4)c3)cn2c1 [Compound 568, N-(5-(6-aminoimidazo[1,2-a]pyrimidin-2-yl)-2-fluorophenyl)pyrrolidine-1-carboxamide]

— patent US20160045505A1, “COMPOUNDS AND COMPOSITIONS FOR THE TREATMENT OF PARASITIC DISEASES” (NOVARTIS AG, priority 2013, published 2016)
